Measurements from US8476287B2, “3-hydroxy-5-arylisothiazole derivative” (Mochida Pharmaceutical Co., Ltd., priority 2009, dated 2013).
pEC50: −log10 of the molar value.

Target: T1, GPR40 of human origin (Homo sapiens, UniProt O14842)
T1 construct: expressed in transfected cells
Assay: Agonist action on GPR40 of human origin (Ca2+ fluorescence in CHO cells)
Type: cell-based
Conditions: CHO cell strain stably expressing GPR40 of human origin; Ca2+ concentration fluctuation, fluorescent calcium indicator
Method: A CHO cell strain stably expressing GPR40 of human origin was used to determine the agonist action of a subject compound. This cell strain was seeded in a clear bottom 96 well plate at 4×10^4 cells/100 μL/well. The cell strain was cultured in a CO2 incubator overnight using a Ham's F-12 medium containing a 10% fetal bovine serum, 100 U/mL penicillin, 0.1 mg/mL streptomycin, and 400 μg/mL Geneticin. Calcium 4 Assay Kit (Molecular Devices) was used as a fluorescent calcium indicator. One mL of 77 mg/mL probenecid (Invitrogen) was added to 100 mL of a calcium indicator solution to prepare a solution (loading solution) mixed with a 20 mM HEPES-containing Hanks' balanced salt solution (HBSS) in equal proportions. 200 μL of the loading solution was added to the cells from which the culture solution was removed, and the cells were cultured in a CO2 incubator for 1 hour. The subject compound was diluted with a 20 mM HEPES-containing HBSS and was added to the cells by 50 μL, and the fluctuation of the Ca^2+ concentration was measured by an intracellular ion analyzer. The EC50 value of the subject compound was calculated using the dose-response curve of fluorescence intensity variation.

T1 sequence (O14842 whole entry): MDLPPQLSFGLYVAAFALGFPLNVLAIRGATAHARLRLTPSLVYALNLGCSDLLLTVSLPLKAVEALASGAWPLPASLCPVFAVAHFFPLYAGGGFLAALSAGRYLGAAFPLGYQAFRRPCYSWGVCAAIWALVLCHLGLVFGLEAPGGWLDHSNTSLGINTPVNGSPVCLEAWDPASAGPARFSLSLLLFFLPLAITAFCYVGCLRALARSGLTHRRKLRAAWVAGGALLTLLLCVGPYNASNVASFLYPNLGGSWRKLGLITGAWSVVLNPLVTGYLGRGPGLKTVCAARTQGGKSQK

With `Cc1cc(OCCCS(C)(=O)=O)c(F)c(C)c1-c1cccc(COc2ccc(-c3cc(O)n[s+]3[O-])cc2)c1` (stereo not drawn) [Example 27, 5-(4-((3-(2,6-dimethyl-3-fluoro-4-(3-(methylsulfonyl)propoxy)phenyl)phenyl)methoxy)phenyl)isothiazol-3-ol 1-oxide(A)] the pEC50 was > 6.52.
With `Cc1cc(OCCC(C)(C)O)ncc1-c1cccc(COc2ccc(-c3cc(O)n[s+]3[O-])cc2)c1C` (stereo not drawn) [Example 10, 5-(4-((3-(6-(3-hydroxy-3-methylbutoxy)-4-methylpyridin-3-yl)-2-methylphenyl)methoxy)phenyl)isothiazol-3-ol 1-oxide] the pEC50 was > 6.52.
With `CC1(C)CCC(C)(C)c2cc(COc3ccc(-c4cc(O)n[s+]4[O-])cc3)ccc21` (stereo not drawn) [Example 85, 5-[4-[(5,5,8,8-tetramethyl-6,7-dihydronaphthalen-2-yl)methoxy]phenyl]isothiazol-3-ol 1-oxide(A)] the pEC50 was > 6.52.
`Cc1cccc(C)c1-c1cccc2c1CC[C@H]2Oc1ccc(-c2cc(O)n[s+]2[O-])cc1` (single isomer, unassigned) [Example 107] was tested, and the pEC50 was > 6.52.
With `CCOCCOc1cc(C)c(-c2cccc(COc3ccc(-c4cc(O)n[s+]4[O-])cc3)c2)c(C)n1` (stereo not drawn) [Example 19, 5-(4-((3-(2,4-dimethyl-6-(2-ethoxyethoxy)pyridin-3-yl)phenyl)methoxy)phenyl)isothiazol-3-ol 1-oxide(A)] the pEC50 was > 6.52.
In the case of `Cc1nc(OCCCN2CCCC2=O)nc(C)c1-c1cccc(COc2ccc(-c3cc(O)n[s+]3[O-])cc2)c1C` (stereo not drawn) [Example 37, 5-(4-((3-(4,6-dimethyl-2-(3-(2-oxopyrrolidin-1-yl)propoxy)pyrimidin-5-yl)-2-methylphenyl)methoxy)phenyl)isothiazol-3-ol 1-oxide(A)], the pEC50 was 5.52 to 6.52.
